Molecular target: Endoplasmic reticulum aminopeptidase 2 (Homo sapiens, UniProt Q6P179)
Experiment: Activation of ERAP2 (unknown origin)-mediated Arg-AMC substrate hydrolysis after 60 mins by Rapidfire-MS analysis

Endoplasmic reticulum aminopeptidase 2, sequence (Q6P179 whole entry): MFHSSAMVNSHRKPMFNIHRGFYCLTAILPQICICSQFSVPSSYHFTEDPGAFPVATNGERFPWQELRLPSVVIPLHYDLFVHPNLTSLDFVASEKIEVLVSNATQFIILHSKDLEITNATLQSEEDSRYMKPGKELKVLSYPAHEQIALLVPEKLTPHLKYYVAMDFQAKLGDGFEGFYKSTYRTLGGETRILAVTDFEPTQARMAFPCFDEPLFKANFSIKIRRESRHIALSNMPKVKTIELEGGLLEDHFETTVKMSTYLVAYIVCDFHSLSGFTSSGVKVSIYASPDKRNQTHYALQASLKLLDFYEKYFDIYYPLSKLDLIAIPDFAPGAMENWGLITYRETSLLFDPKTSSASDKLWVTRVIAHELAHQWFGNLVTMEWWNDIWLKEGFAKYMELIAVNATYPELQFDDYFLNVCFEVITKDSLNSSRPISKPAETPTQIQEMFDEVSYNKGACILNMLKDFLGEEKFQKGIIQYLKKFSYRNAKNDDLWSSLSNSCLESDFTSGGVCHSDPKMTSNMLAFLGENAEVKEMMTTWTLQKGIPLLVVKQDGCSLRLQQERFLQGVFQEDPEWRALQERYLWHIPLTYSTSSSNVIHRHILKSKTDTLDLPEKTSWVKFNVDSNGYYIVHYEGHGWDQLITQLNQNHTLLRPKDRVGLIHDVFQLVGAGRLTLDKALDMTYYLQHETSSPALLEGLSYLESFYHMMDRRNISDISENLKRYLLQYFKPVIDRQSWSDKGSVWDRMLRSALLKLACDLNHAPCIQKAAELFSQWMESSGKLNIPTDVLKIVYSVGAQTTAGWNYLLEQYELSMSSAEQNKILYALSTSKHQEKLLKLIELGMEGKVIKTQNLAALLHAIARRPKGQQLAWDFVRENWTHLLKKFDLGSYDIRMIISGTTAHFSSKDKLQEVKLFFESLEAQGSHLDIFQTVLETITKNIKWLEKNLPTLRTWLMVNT

Q: Which IC50 does the source give for `C[C@@H]1C[C@H](O)[C@@]2(C)C(C(=O)O)=CCC[C@@H]2[C@@]1(C)CCc1ccoc1` here?
A: The IC50 was > 158 µM.

Reference: ChEMBL document CHEMBL4354860, “Targeting the Regulatory Site of ER Aminopeptidase 1 Leads to the Discovery of a Natural Product Modulator of Antigen Presentation” (J Med Chem, 2020)
